# Measured values published in patent publication US20210254056A1, “IDENTIFICATION AND TARGETED MODULATION OF GENE SIGNALING NETWORKS” (CAMP4 THERAPEUTICS CORPORATION, priority 2017, published 2021).
# Counter-ions that a name gives are not always drawn. Like-named read-outs stand apart in the source and are kept apart here.
# System: hepatocytes
# Experiment: RNA-seq of hepatocytes treated with Phase III failure compounds
# Details: for significant modulation of expression of disease genes: q≤0.05, genes in the value or listed in the block; for B2M expression, RNA-seq result: gene B2M; for B9D2 expression, RNA-seq result: gene B9D2; for BAAT expression, RNA-seq result: gene BAAT; for BBOX1 expression, RNA-seq result: gene BBOX1; for BBS10 expression, RNA-seq result: gene BBS10; for BCHE expression, RNA-seq result: gene BCHE; for BCKDHB expression, RNA-seq result: gene BCKDHB; for BCKDK expression, RNA-seq result: gene BCKDK; for BCO1 expression, RNA-seq result: gene BCO1; for BCR expression, RNA-seq result: gene BCR; for BLNK expression, RNA-seq result: gene BLNK; for BLOC1S3 expression, RNA-seq result: gene BLOC1S3; for BMPR1A expression, RNA-seq result: gene BMPR1A; for BRAF expression, RNA-seq result: gene BRAF; for BSCL2 expression, RNA-seq result: gene BSCL2; for BTD expression, RNA-seq result: gene BTD; for C4A expression, RNA-seq result: gene C4A; for C9 expression, RNA-seq result: gene C9; for C10orf10 expression, RNA-seq result: gene C10orf10; for C10orf11 expression, RNA-seq result: gene C10orf11; for C15orf41 expression, RNA-seq result: gene C15orf41; for CA2 expression, RNA-seq result: gene CA2; for CA5A expression, RNA-seq result: gene CA5A; for CA12 expression, RNA-seq result: gene CA12; for CAV1 expression, RNA-seq result: gene CAV1; for CCND1 expression, RNA-seq result: gene CCND1; for CD46 expression, RNA-seq result: gene CD46; for CD81 expression, RNA-seq result: gene CD81; for CD320 expression, RNA-seq result: gene CD320; for CDAN1 expression, RNA-seq result: gene CDAN1; for CDH1 expression, RNA-seq result: gene CDH1; for CEP19 expression, RNA-seq result: gene CEP19; for CEP83 expression, RNA-seq result: gene CEP83; for CEP164 expression, RNA-seq result: gene CEP164; for CEP290 expression, RNA-seq result: gene CEP290; for CFB expression, RNA-seq result: gene CFB; for CFHR2 expression, RNA-seq result: gene CFHR2; for CHRM3 expression, RNA-seq result: gene CHRM3; for CIDEC expression, RNA-seq result: gene CIDEC; for CLDN1 expression, RNA-seq result: gene CLDN1; for COG1 expression, RNA-seq result: gene COG1
# Procedure: RNA-seq was performed to determine the effects of the compounds on hepatocytes.
# Significance was determined by the criteria of FPKM≥0.5, a log 2(fold-change)≥1, and a […].
# [1] = RNA-seq, Phase III failure compounds, hepatocytes, significance: FPKM≥0.5, log 2(fold-change)≥1, q-value≥0.05 (so in the source)
compound,measurement,setting,value
"CN(C)[C@@H]1C(O)=C(C(N)=O)C(=O)[C@@]2(O)C(O)=C3C(=O)c4c(O)c(NC(=O)CN5CCCC5)cc(F)c4C[C@H]3C[C@@H]12 [TP-434 (Eravacycline), Eravacycline]",Number (#) of genes having significantly changed expression,,232
same,significant modulation of expression of disease genes,"RNA-seq, hepatocytes",significantly (q≤0.05) modulate expression
same,"B2M expression, RNA-seq result",hepatocytes,0.56
same,"B9D2 expression, RNA-seq result",hepatocytes,0.16
same,"BAAT expression, RNA-seq result",hepatocytes,−0.52
same,"BBOX1 expression, RNA-seq result",hepatocytes,−0.06
same,"BBS10 expression, RNA-seq result",hepatocytes,0.05
same,"BCHE expression, RNA-seq result",hepatocytes,0.12
same,"BCKDHB expression, RNA-seq result",hepatocytes,0.04
same,"BCKDK expression, RNA-seq result",hepatocytes,−0.23
same,"BCO1 expression, RNA-seq result",hepatocytes,−0.13
same,"BCR expression, RNA-seq result",hepatocytes,−0.17
same,"BLNK expression, RNA-seq result",hepatocytes,−0.18
same,"BLOC1S3 expression, RNA-seq result",hepatocytes,0.32
same,"BMPR1A expression, RNA-seq result",hepatocytes,−0.06
same,"BRAF expression, RNA-seq result",hepatocytes,0.03
same,"BSCL2 expression, RNA-seq result",hepatocytes,1.5
same,"BTD expression, RNA-seq result",hepatocytes,−0.25
same,"C4A expression, RNA-seq result",hepatocytes,−0.38
same,"C9 expression, RNA-seq result",hepatocytes,0.21
same,"C10orf10 expression, RNA-seq result",hepatocytes,−0.02
same,"C10orf11 expression, RNA-seq result",hepatocytes,0.56
same,"C15orf41 expression, RNA-seq result",hepatocytes,0.12
same,"CA2 expression, RNA-seq result",hepatocytes,0.71
same,"CA5A expression, RNA-seq result",hepatocytes,0.32
same,"CA12 expression, RNA-seq result",hepatocytes,0.2
same,"CAV1 expression, RNA-seq result",hepatocytes,0.34
same,"CCND1 expression, RNA-seq result",hepatocytes,−0.7
same,"CD46 expression, RNA-seq result",hepatocytes,0.23
same,"CD81 expression, RNA-seq result",hepatocytes,0.17
same,"CD320 expression, RNA-seq result",hepatocytes,0.3
same,"CDAN1 expression, RNA-seq result",hepatocytes,−0.27
same,"CDH1 expression, RNA-seq result",hepatocytes,−0.59
same,"CEP19 expression, RNA-seq result",hepatocytes,0.1
same,"CEP83 expression, RNA-seq result",hepatocytes,−0.15
same,"CEP164 expression, RNA-seq result",hepatocytes,−0.21
same,"CEP290 expression, RNA-seq result",hepatocytes,0.55
same,"CFB expression, RNA-seq result",hepatocytes,0.23
same,"CFHR2 expression, RNA-seq result",hepatocytes,0.4
same,"CHRM3 expression, RNA-seq result",hepatocytes,−0.27
same,"CIDEC expression, RNA-seq result",hepatocytes,−0.79
same,"CLDN1 expression, RNA-seq result",hepatocytes,0.09
same,"COG1 expression, RNA-seq result",hepatocytes,−0.37
"CS(=O)(=O)c1cc(F)cc2c3c(n(Cc4ccc(Cl)cc4)c12)[C@@H](CC(=O)O)CC3 [Laropiprant (tredaptive), Laropiprant]",significant changes in gene expression,"RNA-seq of Table 36, FPKM≥0.5, log 2(fold-change)≥1, q-value≤0.05",not observed to cause any significant changes in gene expression
same,significant modulation of expression of any of the genes analyzed,"RNA-seq, p≤0.05, hepatocytes",not observed to significantly modulate expression
"O=C(N[C@H]1CN2CCC1CC2)c1cc2cccc(Cl)c2s1 [EVP-6124 (hydrochloride) (encenicline), encenicline]",Number (#) of genes having significantly changed expression,[1],141
same,significant modulation of expression of disease genes,"RNA-seq, hepatocytes",significantly (q≤0.05) modulate expression
same,"B2M expression, RNA-seq result",hepatocytes,0.16
same,"B9D2 expression, RNA-seq result",hepatocytes,−0.55
same,"BAAT expression, RNA-seq result",hepatocytes,0.61
same,"BBOX1 expression, RNA-seq result",hepatocytes,−0.14
same,"BBS10 expression, RNA-seq result",hepatocytes,−0.33
same,"BCHE expression, RNA-seq result",hepatocytes,−0.41
same,"BCKDHB expression, RNA-seq result",hepatocytes,−0.31
same,"BCKDK expression, RNA-seq result",hepatocytes,−0.23
same,"BCO1 expression, RNA-seq result",hepatocytes,0.24
same,"BCR expression, RNA-seq result",hepatocytes,−0.06
same,"BLNK expression, RNA-seq result",hepatocytes,0.39
same,"BLOC1S3 expression, RNA-seq result",hepatocytes,0.46
same,"BMPR1A expression, RNA-seq result",hepatocytes,0.09
same,"BRAF expression, RNA-seq result",hepatocytes,0.04
same,"BSCL2 expression, RNA-seq result",hepatocytes,−0.54
same,"BTD expression, RNA-seq result",hepatocytes,−0.08
same,"C4A expression, RNA-seq result",hepatocytes,0.24
same,"C9 expression, RNA-seq result",hepatocytes,−0.11
same,"C10orf10 expression, RNA-seq result",hepatocytes,−0.31
same,"C10orf11 expression, RNA-seq result",hepatocytes,0.1
same,"C15orf41 expression, RNA-seq result",hepatocytes,−0.2
same,"CA2 expression, RNA-seq result",hepatocytes,0.6
same,"CA5A expression, RNA-seq result",hepatocytes,0.1
same,"CA12 expression, RNA-seq result",hepatocytes,0.58
same,"CAV1 expression, RNA-seq result",hepatocytes,−0.81
same,"CCND1 expression, RNA-seq result",hepatocytes,−0.9
same,"CD46 expression, RNA-seq result",hepatocytes,0.24
same,"CD81 expression, RNA-seq result",hepatocytes,0.27
same,"CD320 expression, RNA-seq result",hepatocytes,−0.04
same,"CDAN1 expression, RNA-seq result",hepatocytes,−0.04
same,"CDH1 expression, RNA-seq result",hepatocytes,−0.12
same,"CEP19 expression, RNA-seq result",hepatocytes,−0.06
same,"CEP83 expression, RNA-seq result",hepatocytes,−0.3
same,"CEP164 expression, RNA-seq result",hepatocytes,−0.12
same,"CEP290 expression, RNA-seq result",hepatocytes,−0.26
same,"CFB expression, RNA-seq result",hepatocytes,0.1
same,"CFHR2 expression, RNA-seq result",hepatocytes,−0.08
same,"CHRM3 expression, RNA-seq result",hepatocytes,0.28
same,"CIDEC expression, RNA-seq result",hepatocytes,−0.13
same,"CLDN1 expression, RNA-seq result",hepatocytes,−0.46
same,"COG1 expression, RNA-seq result",hepatocytes,−0.19
"Fc1ccc(C(OCCN2CCN(CCCc3ccccc3)CC2)c2ccc(F)cc2)cc1 [Vanoxerine (dihydrochloride), Vanoxerine]",significant modulation of expression of disease genes,"RNA-seq, hepatocytes",significantly (q≤0.05) modulate expression of HMOX1
same,"B2M expression, RNA-seq result",hepatocytes,−0.07
same,"B9D2 expression, RNA-seq result",hepatocytes,0.29
same,"BAAT expression, RNA-seq result",hepatocytes,0.01
same,"BBOX1 expression, RNA-seq result",hepatocytes,0.01
same,"BBS10 expression, RNA-seq result",hepatocytes,−0.41
same,"BCHE expression, RNA-seq result",hepatocytes,−0.5
same,"BCKDHB expression, RNA-seq result",hepatocytes,−0.06
same,"BCKDK expression, RNA-seq result",hepatocytes,0.02
same,"BCO1 expression, RNA-seq result",hepatocytes,0.08
same,"BCR expression, RNA-seq result",hepatocytes,0.04
same,"BLNK expression, RNA-seq result",hepatocytes,0.18
same,"BLOC1S3 expression, RNA-seq result",hepatocytes,0.46
same,"BMPR1A expression, RNA-seq result",hepatocytes,0
same,"BRAF expression, RNA-seq result",hepatocytes,0.2
same,"BSCL2 expression, RNA-seq result",hepatocytes,−0.45
same,"BTD expression, RNA-seq result",hepatocytes,−0.16
same,"C4A expression, RNA-seq result",hepatocytes,0.05
same,"C9 expression, RNA-seq result",hepatocytes,−0.2
same,"C10orf10 expression, RNA-seq result",hepatocytes,0.02
same,"C10orf11 expression, RNA-seq result",hepatocytes,0.18
same,"C15orf41 expression, RNA-seq result",hepatocytes,0.13
same,"CA2 expression, RNA-seq result",hepatocytes,0.53
same,"CA5A expression, RNA-seq result",hepatocytes,0.24
same,"CA12 expression, RNA-seq result",hepatocytes,0.77
same,"CAV1 expression, RNA-seq result",hepatocytes,−0.47
same,"CCND1 expression, RNA-seq result",hepatocytes,−0.33
same,"CD46 expression, RNA-seq result",hepatocytes,−0.14
same,"CD81 expression, RNA-seq result",hepatocytes,0.3
same,"CD320 expression, RNA-seq result",hepatocytes,0.17
same,"CDAN1 expression, RNA-seq result",hepatocytes,0.25
same,"CDH1 expression, RNA-seq result",hepatocytes,−0.29
same,"CEP19 expression, RNA-seq result",hepatocytes,−0.07
same,"CEP83 expression, RNA-seq result",hepatocytes,−0.12
same,"CEP164 expression, RNA-seq result",hepatocytes,0.12
same,"CEP290 expression, RNA-seq result",hepatocytes,−0.14
same,"CFB expression, RNA-seq result",hepatocytes,0.02
same,"CFHR2 expression, RNA-seq result",hepatocytes,−0.46
same,"CHRM3 expression, RNA-seq result",hepatocytes,−0.06
same,"CIDEC expression, RNA-seq result",hepatocytes,0.1
same,"CLDN1 expression, RNA-seq result",hepatocytes,−0.37
same,"COG1 expression, RNA-seq result",hepatocytes,0.06
CCC(CC)[C@H](NC(C)=O)[C@@H]1[C@H](O)[C@@H](C(=O)O)C[C@H]1N=C(N)N [Peramivir],Number (#) of genes having significantly changed expression,[1],23
"C1=C/COCc2cc(ccc2OCCN2CCCC2)Nc2nccc(n2)-c2cccc(c2)COC/1 [Pacritinib (SB1518), Pacritinib]",significant modulation of expression of disease genes,"RNA-seq, hepatocytes",significantly (q≤0.05) modulate expression
